Format in all cases: physicochemical
Data set [1] in a line: In vitro dissolution test of Drug 2 compositions in MFD solution. Conditions: for Drug 2: MFD solution, 37° C. More on the design: AUC / AUC90: concentration or dose not given beside the values. How it is done:
(§1) For Control C2, the crystalline form of the drug alone was used without further processing. […] The tubes were placed in a 37° C. temperature-controlled bath, and 1.8 mL phosphate buffered saline (PBS) at pH 6.5 and 290 mOsm/kg was added to each. The samples were quickly mixed using a vortex mixer for about 60 seconds. The samples were centrifuged at 13,000 G at 37° C. for 1 minute. The resulting supernatant solutions were then sampled and diluted 1:6 (by volume) with methanol and then analyzed by high-performance liquid chromatography (HPLC). The contents of the tubes were mixed on the vortex mixer and allowed to stand undisturbed at 37° C. until the next sample was taken. Samples were collected at 4, 10, 20, 40, 90, and 1200 minutes.
This example measures' the concentration-enhancing properties of the PVP dispersion of Example 14. Dissolution tests were performed, as described in Example 4 with the following exceptions: the PBS solution contained 7.3 mM sodium taurocholic acid and 1.4 mM 1-palmitoyl-2-oleyl-sn-glycero-3-phosphocholine (model fasted duodenal (MFD) solution). 1.8 mg of dispersion was added to 1.8 mL of test media. For Control C6, 0.18 mg of the crystalline form of the Drug 2 alone was used without further processing and added to 1.8 mL of MFD solution.

Data set [2] is described as follows: In vitro dissolution test of Drug 4 compositions in PBS. Conditions: for AUC / [Drug 4]: Table 25; for AUC / AUC90 / Cmax90: Drug 4, PBS; for [Drug 4]: PBS; for AUC90 / Cmax90: 0 to 90 min. How it is done: as §1
In vitro dissolution tests were performed for Examples 25-27 using the procedure described in Example 4, with the following exceptions: 14.4 mg each of the dispersions of Examples 25-27 were added to separate, respective centrifuge tubes. 1.8 mL PBS was added to each tube. For comparison, Control C11 was prepared consisting of 3.6 mg of crystalline Drug 4 added to 1.8 mL PBS. Drug 4 concentration in the samples was determined using HPLC. A Zorbax SB C18 HPLC column was used with a mobile phase of 35 vol. % water and 65 vol. % methanol. UV detection was measured at 297 nm.
(§2) In vitro dissolution tests were performed for Examples 35-38, using the procedures described in Example 4, with the following exceptions: 14.4 mg each of Example 35 and 36 were added to separate respective test tubes to which 1.8 mL of PBS solution was added, so that the total theoretical Drug 4 concentration was approximately 200 μg/mL if all of Drug 4 were to dissolve completely; 3.6 mg each of Examples 37 and 38 were added in separate respective test tubes to 1.8 mL of MFD solution, to provide a total theoretical Drug 5 concentration of approximately 20 μg/mL if all of Drug 5 were to dissolve completely. Drug 4 concentration in the samples was determined as in Example 33. Drug 5 concentration in the samples was determined as in Example 34.

A short description of data set [3]: In vitro dissolution test of Drug 3 compositions in MFD solution. Conditions: for Drug 3: MFD solution, 37° C. On the set-up: AUC / AUC90: concentration or dose not given beside the values. The method, then: as §1
Dissolution tests were performed, as described in Example 4 with the following exceptions: samples were tested in MFD Solution, and 1.8 mg of dispersion was added to 1.8 mLs of MFD Solution. Control C9 was simply 0.18 mg of the crystalline Drug 3 alone add to 1.8 mL of MFD solution.

Data set [4] is described as follows: In vitro dissolution test of Drug 5 compositions in MFD solution. More on the design: AUC90: concentration or dose not given beside the values. Conditions: for AUC / Drug 5 Concentration: Table 27; for AUC / AUC90 / Cmax90: Drug 5, MFD solution; for Drug 5 Concentration: MFD solution; for AUC90 / Cmax90: 0 to 90 min. The method, then:
as §1
In vitro dissolution tests were performed for Examples 28-29, using the procedure described in Example 4, with the following exceptions: 9 mg each of the dispersions of Examples 28-29 were added to separate respective centrifuge tubes. 1.8 mL of MFD solution was then added to each tube. For comparison, Control C12 was prepared consisting of 0.36 mg of crystalline Drug 5 added to 1.8 mL of MFD solution for a total theoretical concentration of 200 μg/mL if all of the drug dissolved. Drug 5 concentration in the samples was determined using HPLC. A Waters Symmetry C18 HPLC column was used with a mobile phase of 50 vol. % (0.3 vol. % glacial acetic acid, 0.2 vol. % TEA in water) and 50 vol. % acetonitrile. UV detection was measured at 260 nm.
as §2

Where [5] appears, read: Drug 2, MFD solution, 0 to 90 min.
Setting [6] is: Drug 3, MFD solution, 0 to 90 min.

With `O=C(NC(Cc1ccccc1)C(O)CC(C(=O)NO)C1CCC(F)(F)CC1)c1cnc2ccccc2n1` (stereo not shown) [Example C6, quinoxaline-2-carboxylic acid [1-benzyl-4-(4,4-difluoro-cyclohexyl)-2-hydroxy-4-hydroxycarbamoyl-butyl]-amide], the AUC90 in data set [1] (setting [5]) came out at 400 µg·min/mL. Also, the Cmax90 in data set [1] (setting [5]) was 7000 ng/mL. Besides, the AUC worked out at 0 min*µg/mL in data set [1] (Drug 2, MFD solution, time 0 min); 0 min*µg/mL in data set [1] (Drug 2, MFD solution, time 4 min); 0 min*µg/mL in data set [1] (Drug 2, MFD solution, time 10 min); 100 min*µg/mL in data set [1] (Drug 2, MFD solution, time 20 min); 100 min*µg/mL in data set [1] (Drug 2, MFD solution, time 40 min); 400 min*µg/mL in data set [1] (Drug 2, MFD solution, time 90 min). The “Drug 2” value in data set [1] (time 0 min) worked out at 0 µg/mL; in data set [1] (time 4 min) it was 2 µg/mL; in data set [1] (time 10 min) it was 4 µg/mL; in data set [1] (time 20 min), 4 µg/mL; in data set [1] (time 40 min) it was 4 µg/mL; in data set [1] (time 90 min) it was 7 µg/mL.

Consider `O=C(N[C@@H](Cc1ccccc1)[C@@H](O)C(=O)N1C[C@@H](O)[C@@H](O)C1)c1cc2cc(Cl)ccc2[nH]1` [Example C11, 5-chloro-1H-indole-2-carboxylic acid [(1S)-benzyl-3-((3R,4S)-dihydroxypyrrolidin-1-yl)-(2R)-hydroxy-3-oxypropyl]amide], for which the AUC in data set [2] (time 0 min) is 0 µg·min/mL; in data set [2] (time 4 min), 300 µg·min/mL; in data set [2] (time 10 min) it was 1,000 min*μg/mL; in data set [2] (time 20 min), 2,200 min*μg/mL; in data set [2] (time 40 min), 4,500 min*μg/mL; in data set [2] (time 90 min), 10,300 min*μg/mL. Also, in data set [2] (time 1200 min), the AUC is 120,200 min*μg/mL. Besides, the “[Drug 4]” value in data set [2] (time 0 min) was 0 µg/mL; in data set [2] (time 4 min), 131 µg/mL; in data set [2] (time 10 min), 114 µg/mL; in data set [2] (time 20 min), 124 µg/mL; in data set [2] (time 40 min), 107 µg/mL; in data set [2] (time 90 min), 126 µg/mL. The “[Drug 4]” value in data set [2] (time 1200 min) came to 72 µg/mL. Moreover, the AUC90 in data set [2] (Table 26) is 10,300 min*μg/mL; in data set [2] (Table 31, in min·µg/mL), 10,300. Moreover, the Cmax90 in data set [2] (Table 26) and in data set [2] (Table 31) was 131000 ng/mL each time.

The compound `O=C(NC(Cc1ccccc1)C(O)CC(C(=O)NO)C1(O)CCC(F)(F)CC1)c1cnc2ccccc2n1` (stereo not shown) [Example C9, quinoxaline-2-carboxylic acid [1-benzyl-4-(4,4-difluoro-1-hydroxy-cyclohexyl)-2-hydroxy-4-hydroxycarbamoyl-butyl]-amide] displayed an AUC90 in data set [3] (setting [6]) of 900 µg·min/mL. The compound further gave a Cmax90 in data set [3] (setting [6]) of 13000 ng/mL. Besides, the AUC in data set [3] (Drug 3, MFD solution, time 0 min) is listed as 0 min*µg/mL; in data set [3] (Drug 3, MFD solution, time 4 min), 0 min*µg/mL; in data set [3] (Drug 3, MFD solution, time 10 min) it was 0 min*µg/mL; in data set [3] (Drug 3, MFD solution, time 20 min), 100 min*µg/mL; in data set [3] (Drug 3, MFD solution, time 40 min), 300 min*µg/mL; in data set [3] (Drug 3, MFD solution, time 90 min), 900 min*µg/mL. Moreover, the “Drug 3” value in data set [3] (time 0 min) was found to be 0 µg/mL; in data set [3] (time 4 min), 4 µg/mL; in data set [3] (time 10 min), 6 µg/mL; in data set [3] (time 20 min) it was 8 µg/mL; in data set [3] (time 40 min) it was 11 µg/mL; in data set [3] (time 90 min) it was 13 µg/mL.

Consider `NC(=O)N(O)C1C=C(c2cccc(Oc3ccc(F)cc3)c2)CC1` (single isomer, unassigned; (+)) [Example C12, (+)-N-{3-[3-(4-fluorophenoxy)phenyl]-2-cyclopenten-1-yl}-N-hydroxyurea], for which the AUC in data set [4] (time 0 min) was 0 µg·min/mL; in data set [4] (time 4 min) it was 0 µg·min/mL; in data set [4] (time 10 min), 100 µg·min/mL; in data set [4] (time 20 min), 300 µg·min/mL; in data set [4] (time 40 min), 800 µg·min/mL; in data set [4] (time 90 min), 2,200 min*μg/mL. In data set [4] (time 1200 min), the AUC is listed as 43,300 min*μg/mL. Also, the “Drug 5 Concentration” value was 0 µg/mL in data set [4] (time 0 min); 9 µg/mL in data set [4] (time 4 min); 15 µg/mL in data set [4] (time 10 min); 21 µg/mL in data set [4] (time 20 min); 27 µg/mL in data set [4] (time 40 min); 32 µg/mL in data set [4] (time 90 min). The “Drug 5 Concentration” value in data set [4] (time 1200 min) came to 42 µg/mL. For the same compound, the AUC90 is 2,200 min*μg/mL in data set [4] (Table 28) and 2,200 in data set [4] (Table 32, in min·µg/mL). In addition, the Cmax90 in data set [4] (Table 28) and in data set [4] (Table 32) was 32000 ng/mL each time.

These data come from US9468604B2, “Pharmaceutical compositions of dispersions of drug and neutral polymers” (Bend Research, Inc., priority 2001, dated 2016).
